From patent US10294202B2, “Pyrrolidinones as herbicides” (FMC Corporation, priority 2013, dated 2019)

Legend:
foxtail, giant = assay: Test C pre-/postemergence herbicide test; type: in vivo, Setaria faberii
Outline: (§1)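 Pre- and postemergence greenhouse screen. Preemergence treatment went onto freshly planted seeds in loam–sand soil; postemergence treatment went onto plants 2 to 18 cm tall at the 1- to 4-leaf stage in sphagnum peat/vermiculite medium. Scoring at 13 to 15 days used a 0–100 control scale.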

velvetleaf = assay: Test C pre-/postemergence herbicide test; type: in vivo, Abutilon theophrasti
Outline: as §1

oat, wild = assay: Test C pre-/postemergence herbicide test; type: in vivo, Avena fatua; conditions: Postemergence
Outline: as §1

pigweed = assay: Test A pre-/postemergence herbicide test; type: in vivo, Amaranthus retroflexus
Outline: (§2)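 Visual injury ratings, 0 = no effect, 100 = complete control, taken ~10 days after treatment against untreated greenhouse controls. Preemergence: directed soil spray onto seeded loam/sand pots. Postemergence: spray onto plants at one- to two-leaf stage, 2–10 cm tall.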

barnyardgrass [1] = assay: Test A pre-/postemergence herbicide test; type: in vivo, Echinochloa crus-galli
Outline: as §2

crabgrass, large = assay: Test C pre-/postemergence herbicide test; type: in vivo, Digitaria sanguinalis
Outline: as §1

galium = assay: Test C pre-/postemergence herbicide test; type: in vivo, Galium aparine
Outline: as §1

waterhemp = assay: Test C pre-/postemergence herbicide test; type: in vivo, Amaranthus rudis
Outline: as §1

lambsquarters = assay: Test C pre-/postemergence herbicide test; type: in vivo, Chenopodium album
Outline: as §1

giant foxtail = assay: Test A pre-/postemergence herbicide test; type: in vivo, Setaria faberii
Outline: as §2

barnyardgrass [2] = assay: Test C pre-/postemergence herbicide test; type: in vivo, Echinochloa crus-galli
Outline: as §1

morningglory = assay: Test C pre-/postemergence herbicide test; type: in vivo, Ipomoea coccinea
Outline: as §1

[3] = Postemergence, 31 g ai/ha, scale 0 to 100 (0 no effect, 100 complete control)
[4] = Postemergence, 62 g ai/ha, scale 0 (no effect) to 100 (complete control)
[5] = Postemergence, 125 g ai/ha, scale 0 to 100 (0 no effect, 100 complete control)
[6] = Postemergence, 250 g ai/ha, scale 0 to 100 (0 no effect, 100 complete control)
[7] = Preemergence, 31 g ai/ha, scale 0 to 100, 0 is no effect and 100 is complete control
[8] = Preemergence, 62 g ai/ha, scale 0 to 100 (0 no effect, 100 complete control)
[9] = Preemergence, 125 g ai/ha, scale 0 to 100 (0 no effect, 100 complete control)
[10] = Postemergence, 500 g ai/ha, 0 to 100 scale (0 no effect, 100 complete control)
[11] = Preemergence, 125 g ai/ha, 0 to 100 scale where 0 is no effect and 100 is complete control
[12] = preemergence, 500 g ai/ha, 0 to 100 scale, 0 is no effect and 100 is complete control
[13] = Postemergence, 125 g ai/ha, 0 to 100 scale, 0 is no effect, 100 is complete control

## O=C1NCC(c2cc(F)cc(F)c2)C1C(=O)Nc1ccc(F)cc1F (racemic) [Compound 278]
foxtail, giant; [3]
  Plant response rating, Foxtail, Giant: 10
foxtail, giant; [4]
  Plant response rating, Foxtail, Giant: 10
foxtail, giant; [5]
  Plant response rating, Foxtail, Giant: 40
foxtail, giant; [6]
  Plant response rating, Foxtail, Giant: 75
foxtail, giant; [7]
  Foxtail, Giant plant response rating: 80
foxtail, giant; [8]
  Foxtail, Giant plant response rating: 90
foxtail, giant; [9]
  Plant response rating, Foxtail, Giant: 95
foxtail, giant; Preemergence, 250 g ai/ha
  Plant response rating (scale of 0 to 100), Foxtail, Giant: 100
velvetleaf; [3]
  Plant response rating, Velvetleaf: 0
velvetleaf; [4]
  Plant response rating, Velvetleaf: 0
velvetleaf; [5]
  Plant response rating, Velvetleaf: 10
velvetleaf; [6]
  Plant response rating, Velvetleaf: 20
velvetleaf; [7]
  Velvetleaf plant response rating: 0
velvetleaf; [8]
  Velvetleaf plant response rating: 0
velvetleaf; [9]
  Plant response rating, Velvetleaf: 0
velvetleaf; Preemergence, 250 g ai/ha
  Plant response rating (scale of 0 to 100), Velvetleaf: 0
oat, wild; 31 g ai/ha, scale 0 to 100 (0 no effect, 100 complete control)
  Plant response rating, Oat, Wild: 0
oat, wild; 62 g ai/ha, scale 0 (no effect) to 100 (complete control)
  Plant response rating, Oat, Wild: 0
oat, wild; 125 g ai/ha, scale 0 to 100 (0 no effect, 100 complete control)
  Plant response rating, Oat, Wild: 0
oat, wild; 250 g ai/ha, scale 0 to 100 (0 no effect, 100 complete control)
  Plant response rating, Oat, Wild: 0
pigweed; Postemergence, 125 g ai/ha, visual rating on 0 to 100 scale (0 no effect, 100 complete control), approx. 10 days
  Plant response rating, Pigweed: 0
pigweed; [10]
  Plant response rating, Pigweed: 10
pigweed; [11]
  Plant response rating, Pigweed: 0
pigweed; [12]
  Plant response rating, Pigweed: 0
Barnyardgrass [1]; [13]
  Plant response rating, Barnyardgrass: 80
Barnyardgrass [1]; [10]
  Plant response rating, Barnyardgrass: 90
Barnyardgrass [1]; [11]
  Plant response rating, Barnyardgrass: 80
Barnyardgrass [1]; [12]
  Plant response rating, Barnyardgrass: 90
crabgrass, large; [3]
  Plant response rating, Crabgrass, Large: 0
crabgrass, large; [4]
  Plant response rating, Crabgrass, Large: 30
crabgrass, large; [5]
  Plant response rating, Crabgrass, Large: 65
crabgrass, large; [6]
  Plant response rating, Crabgrass, Large: 75
crabgrass, large; [7]
  Crabgrass, Large plant response rating: 90
crabgrass, large; [8]
  Crabgrass, Large plant response rating: 95
crabgrass, large; [9]
  Plant response rating, Crabgrass, Large: 98
crabgrass, large; Preemergence, 250 g ai/ha
  Plant response rating (scale of 0 to 100), Crabgrass, Large: 100
galium; [3]
  Plant response rating, Galium: 0
galium; [4]
  Plant response rating, Galium: 0
galium; [5]
  Plant response rating, Galium: 5
galium; [6]
  Plant response rating, Galium: 20
galium; [7]
  Galium plant response rating: 0
galium; [8]
  Galium plant response rating: 0
galium; [9]
  Plant response rating, Galium: 0
galium; Preemergence, 250 g ai/ha
  Plant response rating (scale of 0 to 100), Galium: 5
waterhemp; [3]
  Plant response rating, Waterhemp: 0
waterhemp; [4]
  Plant response rating, Waterhemp: 0
waterhemp; [5]
  Plant response rating, Waterhemp: 5
waterhemp; [6]
  Plant response rating, Waterhemp: 5
waterhemp; [7]
  Waterhemp plant response rating: 0
waterhemp; [8]
  Waterhemp plant response rating: 0
waterhemp; [9]
  Plant response rating, Waterhemp: 0
waterhemp; Preemergence, 250 g ai/ha
  Plant response rating (scale of 0 to 100), Waterhemp: 0
lambsquarters; [3]
  Plant response rating, Lambsquarters: 0
lambsquarters; [4]
  Plant response rating, Lambsquarters: 0
lambsquarters; [5]
  Plant response rating, Lambsquarters: 20
lambsquarters; [6]
  Plant response rating, Lambsquarters: 20
lambsquarters; [7]
  Lambsquarters plant response rating: 0
lambsquarters; [8]
  Lambsquarters plant response rating: 0
lambsquarters; [9]
  Plant response rating, Lambsquarters: 0
lambsquarters; Preemergence, 250 g ai/ha
  Plant response rating (scale of 0 to 100), Lambsquarters: 0
Giant foxtail; [13]
  Plant response rating, Foxtail, Giant: 80
Giant foxtail; [10]
  Plant response rating, Foxtail, Giant: 80
Giant foxtail; [11]
  Plant response rating, Foxtail, Giant: 90
Giant foxtail; [12]
  Plant response rating, Foxtail, Giant: 90
Barnyardgrass [2]; [3]
  Plant response rating, Barnyardgrass: 0
Barnyardgrass [2]; [4]
  Plant response rating, Barnyardgrass: 10
Barnyardgrass [2]; [5]
  Plant response rating, Barnyardgrass: 55
Barnyardgrass [2]; [6]
  Plant response rating, Barnyardgrass: 75
Barnyardgrass [2]; [7]
  Barnyardgrass plant response rating: 65
Barnyardgrass [2]; [8]
  Barnyardgrass plant response rating: 90
Barnyardgrass [2]; [9]
  Plant response rating, Barnyardgrass: 95
Barnyardgrass [2]; Preemergence, 250 g ai/ha
  Plant response rating (scale of 0 to 100; 0 is no effect, 100 is complete control), Barnyardgrass: 100
morningglory; [3]
  Plant response rating, Morningglory: 0
morningglory; [4]
  Plant response rating, Morningglory: 0
morningglory; [5]
  Plant response rating, Morningglory: 45
morningglory; [6]
  Plant response rating, Morningglory: 0
morningglory; [7]
  Morningglory plant response rating: 0
morningglory; [8]
  Morningglory plant response rating: 0
morningglory; [9]
  Plant response rating, Morningglory: 0
morningglory; Preemergence, 250 g ai/ha
  Plant response rating (scale of 0 to 100), Morningglory: 0
